The numbers were not newly measured in US20100292326A1, “PHARMACEUTICAL COMPOSITION COMPRISING S-NITROSOGLUTATHIONE AND POLYSACCHARIDE” (priority 2007, published 2010), which cites them from elsewhere.

The conditions of this data set: buffer.

Structures are written as SMILES.

For the compound `N[C@@H](CCC(=O)N[C@@H](CSN=O)C(=O)NCC(=O)O)C(=O)O` [GSNO, S-nitrosoglutathione], the half-life is 5.5 h.

The half-life is how long it takes for the measured level to halve.
